Assay results taken from US7253286B2, “Nitrogen-containing aromatic derivatives” (Eisai Co., Ltd, priority 2000, dated 2007).

Target: T1, VEGFR2 (Homo sapiens, UniProt P35968)
T1 construct: coding for the cytoplasmic domain, beginning with lysine 791 and including the termination codon; made in house; host or cells: Sf9 insect cells (baculovirus, pFastBacHis)
Assay: Inhibition against VEGFR2 kinase (receptor tyrosine kinase activity, HTRF method)
Type: biochemical
Details: His6-VEGFR2 cytoplasmic domain, biotin-poly(GT) substrate, ATP, 30° C. 10 minutes, read-out: IC50 (concentration required for 50% inhibition of VEGFR2 kinase activity)
Source text: Measurement of Inhibition Against Receptor Tyrosine Kinase Activity
This assay is used to determine inhibition of a test substance on tyrosine kinase activity. DNA coding for the cytoplasmic domain of VEGFR2 is obtained by total cDNA synthesis (Edwards M, International Biotechnology Lab 5(3), 19–25, 1987) or by cloning. Expression in an appropriate expression system can produce a polypeptide with tyrosine kinase activity. […] For VEGFR2 (Genbank Accession No. L04947), the 1.7 kb DNA fragment described by Terman et al. (Oncogene, 6(9), 1677–1683, 1991), coding for the cytoplasmic domain, beginning with lysine 791 and including the termination codon, was isolated from a human placental cDNA library (purchased from Clontech Laboratories, Inc.) and cloned in a Baculovirus expression vector (pFastBacHis, purchased from GIBCO BRL) The recombinant construct was transfected into insect cells (Spondoptea frugiperda9 (Sf9)) to prepare a recombinant Baculovirus. (Instructions for preparation and use of recombinant Baculovirus maybe found in standard texts, such as “Bac-To-Bac Baculovirus Expression System” (GIBCO BRL).) The cytoplasmic fragment starting from lysine 398 (FGFR1, Genbank Accession No. X52833), the cytoplasmic fragment starting from lysine 558 (PDGFRβ, Genbank Accession No. M21616) or the cytoplasmic fragment starting from lysine 974 (HGFR, Genbank Accession No. J02958) may be cloned and expressed by the same method for use in assays for other tyrosine kinases. EGFR was purchased from Sigma Co. (Product No. E-2645).
For expression of the VEGFR2 tyrosine kinase, Sf9 cells were infected with the VEGFR2 recombinant virus and collected after 48 hours. The collected cells were rinsed with ice-cooled phosphate buffered saline (PBS) and then resuspended using 20 ml of ice-cooled Lysis Buffer (50 mM Tris-HCl (pH 8.5), 5 mM 2-mercaptoethanol, 100 mM KCl, 1 mM phenylmethylsulfonyl fluoride, 1% (v/v) NP-40) per 1.5×10^8 cells. The suspension was centrifuged at 12,000 rpm for 30 minutes at 4° C. and the supernatant was obtained.
The supernatant was added to a Ni—NTA agarose column (3 ml, purchased from Qiagen) equilibrated with Buffer A {20 mM Tris-HCl (pH 8.5), 5 mM 2-mercaptoethanol, 500 mM KCl, 20 mM imidazole, 10% (v/v) glycerol}. The column was washed with 30 ml of Buffer A, and then with 6 ml of Buffer B {20 mM Tris-HCl (pH 8.5), 5 mM 2-mercaptoethanol, 1M KCl, 10% (v/v) glycerol}, and finally with 6 ml of Buffer A. After washing, it was eluted with 6 ml of Buffer C {20 mM Tris-HCl (pH8.5), 5mM2-mercaptoethanol, 100 mMKCl, 100 mM imidazole, 10% (v/v) glycerol}. The eluate was placed on a dialysis membrane (purchased from Spectrum Laboratories) and dialyzed with a dialysis buffer {20 mM Tris-HCl (pH 7.5), 10% (v/v) glycerol, 1 mM dithiothreitol, 0.1 mM Na3VO4, 0.1 mM EGTA}. After dialysis, it was supplied for SDS-electrophoresis, and the recombinant protein (His6-VEGFR2, cytoplasmic domain of VEGFR2 fused with 6 histidine residues at the N-terminus) detected at a molecular weight of approximately 100 kDa with Coumassie Brilliant Blue staining was assayed using BSA (bovine serum albumin, purchased from Sigma Co.) as the standard substance, and stored at −80° C. until use. Using the same method for the cytoplasmic domains of FGFR1, PDGFRβ and HGFR yielded respective recombinant proteins fused with 6 histidine residues at the N-termini (His6-FGFR1, His6-PDGFRβ or His6-HGFR).
The tyrosine kinase reaction was conducted as follows. […]

T1 sequence (P35968 786-1356 limits assumed): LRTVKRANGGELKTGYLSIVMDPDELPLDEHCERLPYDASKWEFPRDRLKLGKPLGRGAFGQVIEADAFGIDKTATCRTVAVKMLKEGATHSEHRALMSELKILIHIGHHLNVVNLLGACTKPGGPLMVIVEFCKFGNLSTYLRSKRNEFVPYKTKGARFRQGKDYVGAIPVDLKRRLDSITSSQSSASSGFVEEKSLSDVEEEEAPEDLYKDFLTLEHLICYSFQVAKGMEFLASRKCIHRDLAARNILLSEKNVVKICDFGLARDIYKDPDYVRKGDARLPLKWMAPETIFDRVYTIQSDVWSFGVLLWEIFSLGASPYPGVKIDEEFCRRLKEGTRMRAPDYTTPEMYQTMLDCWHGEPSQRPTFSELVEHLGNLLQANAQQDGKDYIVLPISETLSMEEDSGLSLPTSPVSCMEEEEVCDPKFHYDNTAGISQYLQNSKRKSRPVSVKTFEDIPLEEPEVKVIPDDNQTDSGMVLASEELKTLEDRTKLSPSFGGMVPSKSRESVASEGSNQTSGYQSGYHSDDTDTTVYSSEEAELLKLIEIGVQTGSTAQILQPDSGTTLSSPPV

COCCOc1cc2nccc(Oc3ccc(NC(=O)Nc4cccc(S(C)(=O)=O)c4)c(F)c3)c2cc1C#N [Example 34, N-(4-(6-Cyano-7-(2-methoxyethoxy)-4-quinolyl)oxy-2-fluorophenyl)-N′-(3-(methylsulfonyl)phenyl)urea]
IC50: 3.4 nM

COc1cc2nccc(Oc3ccc(NC(=O)Nc4ccc(F)cc4F)cc3)c2cc1C#N [Example 36, N-(4-(6-Cyano-7-methoxy-4-quinolyl)oxyphenyl)-N′-(2,4-difluorophenyl)urea]
IC50: 14 nM

COc1cc2nccc(Oc3ccc(NC(=O)Nc4ccccc4)cc3)c2cc1C#N [Example 37, N-[4-(6-cyano-7-methoxyquinolin-4-yloxy)phenyl]-N′-phenylurea]
IC50: 22 nM

N#Cc1cc2c(Oc3ccc(NC(=O)Nc4ccc(F)cc4F)c(F)c3)ccnc2cc1OCCN1CCOCC1 [Example 54, N-(4-(6-Cyano-7-(2-(4-morpholino)ethoxy)-4-quinolyl)oxy-2-fluorophenyl)-N′-(2,4-difluorophenyl)urea]
IC50: 15 nM

COCCOc1cc2nccc(Oc3ccc(NC(=O)Nc4ccccc4)c(F)c3)c2cc1C#N [Example 99, N-(4-(6-Cyano-7-(2-methoxyethoxy)-4-quinolyl)oxy-2-fluorophenyl)-N′-phenylurea]
IC50: 8.6 nM

CS(=O)(=O)NCCCOc1cc2nccc(Oc3ccc(NC(=O)Nc4ccc(F)cc4)c(F)c3)c2cc1C#N [Example 111, N-(3-(6-Cyano-4-(3-fluoro-4-((4-fluoroanilino)carbonyl)aminophenoxy)-7-quinolyl)oxypropyl)methanesulfonamide]
IC50: 21 nM

O=C(Nc1ccc(Oc2ncnc3[nH]c(-c4ccccc4)cc23)cc1)NC1CC1 [Example 173, 1-Cyclopropyl-3-[4-(6-phenyl-7H-pyrrolo[2,3-d]pyrimidin-4-yloxy)phenyl]urea]
IC50: 356 nM

CCNC(=O)n1ccc2cc(Oc3ncnc4[nH]c(-c5ccc(O)cc5)cc34)ccc21 [Example 178, 5-[6-(4-Hydroxyphenyl)-7H-pyrrolo[2,3-d]pyrimidin-4-yloxy]indole-1-carboxylic ethylamide]
IC50: 12 nM

O=C1CCc2c(Oc3ccc(NC(=O)Nc4ccc(F)cc4)cc3)ccnc2N1 [Example 182, N-(4-Fluorophenyl)-N′-{4-[(7-oxo-5,6,7,8-tetrahydro[1,8]naphthyridin-4-yl)oxy]phenyl}urea]
IC50: 71 nM

O=C(Nc1ccc(F)cc1)Nc1ccc(Oc2ccnc3[nH]c(=O)ccc23)cc1 [Example 183, N-(4-Fluorophenyl)-N′-{4-[(7-oxo-7,8-dihydro[1,8]naphthyridin-4-yl)oxy]phenyl}urea]
IC50: 29 nM

CCOC(=O)/C=C/c1c(Oc2ccc(NC(=O)Nc3ccc(F)cc3)cc2)ccnc1NC(=O)C1CC1 [Example 184, Ethyl(E)-3-[2-[(cyclopropylcarbonyl)amino]-4-(4-{[(4-fluoroanilino)carbonyl]amino}phenoxy)-3-pyridyl]-2-propenoate]
IC50: 59 nM

O=C(CCCN1CCC(O)CC1)Nc1cc(Oc2ccc3c(ccn3C(=O)NC3CC3)c2)ccn1 [Example 187, N1-Cyclopropyl-5-[(2-{[4-(4-hydroxypiperidino)butanoyl]amino}-4-pyridyl)oxy]-1H-1-indolecarboxamide]
IC50: 14 nM

O=C(Nc1ccc(Oc2ccnc(NC(=O)C3CC3)c2)cc1Cl)NC1CC1 [Example 208]
IC50: 9.2 nM

COCCOc1cc2nccc(Sc3ccc(NC(=O)Nc4nccs4)s3)c2cc1C#N [Example 252, 1-{5-[6-Cyano-7-(2-methoxyethoxy)-quinolin-4-ylsulfanyl]-thiophen-2-yl}-3-(thiazol-2-yl)urea]
IC50: 31 nM

COCCOc1cc2nccc(Sc3ccc(NC(=O)Nc4ccc(C)cc4)s3)c2cc1C#N [Example 259, 1-{5-[6-Cyano-7-(2-methoxyethoxy)quinolin-4-ylsulfanyl]thiophen-2-yl}-3-(para-tolyl)urea]
IC50: 16 nM

COCCOc1cc2nccc(Sc3ccc(NC(=O)Nc4cccc(C#N)c4)s3)c2cc1C#N [Example 260, 1-{5-[6-Cyano-7-(2-methoxyethoxy)quinolin-4-ylsulfanyl]-thiophen-2-yl}-3-(3-cyanophenyl)-urea]
IC50: 11 nM

COCCOc1cc2nccc(Oc3ccc(NC(=O)NC4CC4)c(Cl)c3)c2cc1C#N [Example 262]
IC50: 9.5 nM

COc1cc2nccc(Oc3ccc(N(C)C(=O)NC4CC4)cc3)c2cc1C(N)=O [Example 350, 4-(4-(Cyclopropylaminocarbonyl)-4-methylaminophenoxy)-7-methoxy-6-quinolinecarboxamide]
IC50: 43 nM

COc1cc2nccc(Oc3ccc(NC(=O)NCCCSC)c(F)c3)c2cc1C(N)=O [Example 353, 4-(3-Fluoro-4-((3-methylthiopropylamino)carbonyl)aminophenoxy)-7-methoxy-6-quinolinecarboxamide]
IC50: 2.2 nM

COCCOc1cc2nccc(Oc3ccc(NC(=O)NCCF)c(F)c3)c2cc1C(N)=O [Example 364, 4-(4-(3-Fluoro(2-fluoroethylamino)carbonyl)aminophenoxy)-7-(2-methoxyethoxy)-6-quinolinecarboxamide]
IC50: 8.1 nM

COCCOc1cc2nccc(Oc3ccc(NC(=O)NCCCF)c(F)c3)c2cc1C(N)=O [Example 365]
IC50: 5.4 nM

NC(=O)c1cc2c(Oc3ccc(NC(=O)NC4CC4)c(F)c3)ccnc2cc1OCCN1CCOCC1 [Example 375, 4-(4-(Cyclopropylaminocarbonyl)amino-3-fluorophenoxy)-7-(2-(4-morpholino)ethoxy)-6-quinolinecarboxamide]
IC50: 16 nM

NC(=O)c1cc2c(Oc3ccc(NC(=O)NC4CC4)c(Cl)c3)ccnc2cc1OCCCO [Example 387, 4-(3-Chloro-4-(cyclopropylaminocarbonyl)aminophenoxy)-7-(3-hydroxypropoxy)-6-quinolinecarboxamide]
IC50: 4.1 nM

CN1CCC(COc2cc3nccc(Oc4ccc(NC(=O)NC5CC5)c(Cl)c4)c3cc2C(N)=O)CC1 [Example 394, 4-(3-Chloro-4-(cyclopropylaminocarbonyl)aminophenoxy)-7-((1-methyl-4-piperidyl)methoxy)-6-quinolinecarboxamide]
IC50: 15 nM

COCCNC(=O)c1cc2c(Oc3ccc(NC(=O)NC4CC4)c(Cl)c3)ccnc2cc1OC [Example 398, N6-(2-Methoxyethyl)-4-(3-chloro-4-(((cyclopropylamino)carbonyl)amino)phenoxy)-7-methoxy-6-quinolinecarboxamide]
IC50: 3.5 nM

COc1cc2nccc(Oc3ccc(NC(=O)NC4CC4)c(Cl)c3)c2cc1C(=O)NCCO [Example 410, N6-(2-Hydroxyethyl)-4-(3-chloro-4-(((cyclopropylamino)carbonyl)amino)phenoxy)-7-methoxy-6-quinolinecarboxamide]
IC50: 2.2 nM

COc1cc2nccc(Oc3ccc(NC(=O)NC4CC4)c(Cl)c3)c2cc1C(=O)NCC1OCCO1 [Example 413, N6-(1,3-Dioxolan-2-ylmethyl)-4-(3-chloro-4-(((cyclopropylamino)carbonyl)amino)phenoxy)-7-methoxy-6-quinolinecarboxamide]
IC50: 3.2 nM

COc1cc2nccc(Oc3ccc(N(C)C(=O)Nc4ccc(F)cc4)cc3)c2cc1C(=O)NC1CC1 [Example 435]
IC50: 22 nM

CONC(=O)c1cc2c(Oc3ccc(N(C)C(=O)Nc4ccc(F)cc4)cc3)ccnc2cc1OC [Example 437, N6-Methoxy-4-(4-(((4-fluoroanilino)carbonyl)(methyl)amino)phenoxy)-7-methoxy-6-quinolinecarboxamide]
IC50: 9.9 nM
